assay: Log P by HPLC on reversed phase columns (EEC directive 79/831 Annex V.A8); assay type: physicochemical; details: not given
Description: Measurement of Log P values was performed according to EEC directive 79/831 Annex V.A8 by HPLC (High Performance Liquid Chromatography) on reversed phase columns with the following methods:
[^a] Log P value is determined by measurement of LC-UV, in an acidic range, with 0.1% formic acid in water and acetonitrile as eluent (linear gradient from 10% acetonitrile to 95% acetonitrile).
[^b] Log P value is determined by measurement of LC-UV, in a neutral range, with 0.001 molar ammonium acetate solution in water and acetonitrile as eluent (linear gradient from 10% acetonitrile to 95% acetonitrile).
[^c] Log P value is determined by measurement of LC-UV, in an acidic range, with 0.1% phosphoric acid and acetonitrile as eluent (linear gradient from 10% acetonitrile to 95% acetonitrile).
Calibration was done with straight-chain alkan-2-ones (with 3 to 16 carbon atoms) with known Log P values (measurement of Log P values using retention times with linear interpolation between successive alkanones). Lambda-max-values were determined using UV-spectra from 200 nm to 400 nm and the peak values of the chromatographic signals.

Row | Structure (SMILES) | LogP [a] | LogP [c] | LogP [b]
1 | C=CCOc1cc(F)c(Nc2c(-c3ccc(F)cc3Cl)c(C)nn2C)c(F)c1 [Example I-02] | 3.54^[a]; | 3.40^[c] | –
2 | C#CCOc1cc(F)c(Nc2c(-c3ccc(F)cc3Cl)c(C)nn2C)c(F)c1 [Example I-03] | 3.09^[a]; | 2.90^[c] | –
3 | C=CCOc1cc(F)c(N(C)c2c(-c3ccc(F)cc3Cl)c(C)nn2C)c(F)c1 [Example I-04] | 4.40^[a] | – | –
4 | C#CCOc1cc(F)cc(F)c1Nc1c(-c2ccc(Cl)cc2Cl)c(C)nn1C [Example I-05] | 3.69^[a] | – | –
5 | C#CCOc1cc(F)c(Nc2c(-c3ccccc3F)c(C)nn2C)c(F)c1 [Example I-06] | 2.78^[a] | – | –
6 | C#CCOc1cc(F)cc(F)c1Nc1c(-c2ccccc2F)c(C)nn1C [Example I-07] | 2.96^[a] | – | –
7 | C=CCOc1cc(F)c(Nc2c(-c3ccc(Cl)cc3Cl)c(C)nn2C)c(F)c1 [Example I-08] | 3.97^[a] | – | –
8 | C#CCOc1cc(F)c(Nc2c(-c3ccc(Cl)cc3Cl)c(C)nn2C)c(F)c1 [Example I-09] | 3.44^[a] | – | –
9 | C#CCOc1cc(F)c(Nc2c(-c3cc(OC)cc(OC)c3)c(C)nn2C)c(F)c1 [Example I-10] | 2.73^[a] | – | –
10 | C=CCOc1cc(F)c(Nc2c(-c3cc(OC)cc(OC)c3)c(C)nn2C)c(F)c1 [Example I-11] | 3.11^[a] | – | –
11 | C#CCOc1cc(F)cc(F)c1Nc1c(-c2cc(OC)cc(OC)c2)c(C)nn1C [Example I-12] | 2.85^[a] | – | –
12 | C=CCOc1cc(F)c(Nc2c(-c3ccccc3F)c(C)nn2C)c(F)c1 [Example I-13] | 3.22^[a] | – | –
13 | C#CCOc1cc(F)c(Nc2c(-c3ccc(F)cc3F)c(C)nn2C)c(F)c1 [Example I-14] | 2.90^[a] | – | –
14 | C=CCOc1cc(F)c(Nc2c(-c3ccc(F)cc3F)c(C)nn2C)c(F)c1 [Example I-15] | 3.33^[a] | – | –
15 | C#CCOc1cc(F)cc(F)c1Nc1c(-c2ccc(F)cc2F)c(C)nn1C [Example I-16] | 3.07^[a] | – | –
16 | C#CCOc1cc(F)c(Nc2c(-c3ccc(OC)cc3F)c(C)nn2C)c(F)c1 [Example I-17] | 2.74^[a] | – | –
17 | C=CCOc1cc(F)c(Nc2c(-c3ccc(OC)cc3F)c(C)nn2C)c(F)c1 [Example I-18] | 3.11^[a] | – | –
18 | C#CCOc1cc(F)cc(F)c1Nc1c(-c2ccc(OC)cc2F)c(C)nn1C [Example I-19] | 2.86^[a] | – | –
19 | C#CCOc1cc(F)c(Nc2c(-c3ccc(Cl)nc3)c(C)nn2C)c(F)c1 [Example I-20] | 2.56^[a]; | – | 2.54^[b]
20 | C=CCOc1cc(F)c(Nc2c(-c3ccc(Cl)nc3)c(C)nn2C)c(F)c1 [Example I-21] | 2.95^[a]; | – | 2.92^[b]
21 | C=CCOc1ccc(-c2c(C)nn(C)c2Nc2c(F)cc(OCC=C)cc2F)c(F)c1 [Example I-23] | 3.62^[a] | – | –
22 | C#CCOc1cc(F)c(Nc2c(-c3ccc(OCC=C)cc3F)c(C)nn2C)c(F)c1 [Example I-24] | 3.17^[a] | – | –
23 | C#CCOc1cc(F)cc(F)c1Nc1c(-c2ccc(Cl)nc2)c(C)nn1C [Example I-25] | 2.69^[a]; | – | 2.63^[b]
24 | C#CCOc1ccc(-c2c(C)nn(C)c2Nc2c(F)cc(F)cc2OCC#C)c(F)c1 [Example I-26] | 2.88^[a] | – | –
25 | C#CCOc1ccc(-c2c(C)nn(C)c2Nc2c(F)cc(OCC#C)cc2F)c(F)c1 [Example I-27] | 2.77^[a] | – | –
26 | C#CCOc1ccc(-c2c(C)nn(C)c2Nc2c(F)cc(OCC=C)cc2F)c(F)c1 [Example I-28] | 3.13^[a] | – | –
27 | C#CCOc1ccc(Nc2c(-c3ccc(F)cc3Cl)c(C)nn2C)c(F)c1 [Example I-29] | 3.25^[a]; | – | 3.22^[b]
28 | C=CCOc1ccc(Nc2c(-c3ccc(F)cc3Cl)c(C)nn2C)cc1 [Example I-30] | 3.51^[a]; | – | 3.52^[b]

Row | Structure (SMILES) | LogP [a] | LogP [c] | LogP [b]
29 | C#CCOc1ccc(Nc2c(-c3ccc(F)cc3Cl)c(C)nn2C)cc1 [Example I-31] | 3.09^[a]; | – | 3.06^[b]
30 | C#CCOc1ccc(Nc2c(-c3ccc(F)cc3Cl)c(C)nn2C)c(Cl)c1 [Example I-32] | 3.65^[a]; | – | 3.59^[b]
31 | C#CCOc1cc(F)c(Nc2c(-c3ccc(F)cc3Cl)c(C)nn2C)cc1F [Example I-33] | 3.33^[a]; | 3.20^[c] | 3.23^[b];
32 | C=CCOc1cc(F)c(Nc2c(-c3ccc(F)cc3Cl)c(C)nn2C)cc1F [Example I-34] | 3.74^[a]; | 3.60^[c] | 3.66^[b];
33 | C=CCOc1ccc(Nc2c(-c3ccc(F)cc3Cl)c(C)nn2C)cc1F [Example I-35] | 3.61^[a]; | 3.50^[c] | 3.56^[b];
34 | C#CCOc1ccc(Nc2c(-c3ccc(F)cc3Cl)c(C)nn2C)cc1F [Example I-36] | 3.17^[a]; | 3.10^[c] | 3.14^[b];
35 | C=CCOc1ccc(F)c(Nc2c(-c3ccc(F)cc3Cl)c(C)nn2C)c1 [Example I-37] | 3.78^[a]; | 3.70^[c] | 3.73^[b];
36 | C#CCOc1ccc(F)c(Nc2c(-c3ccc(F)cc3Cl)c(C)nn2C)c1 [Example I-38] | 3.33^[a]; | 3.20^[c] | 3.27^[b];
37 | C#CCOc1cc(F)c(Nc2c(-c3ccc(Cl)cc3Cl)c(C)nn2C)cc1F [Example I-39] | 3.70^[a]; | 3.60^[c] | 3.62^[b];
38 | C#CCOc1ccc(Nc2c(-c3ccc(Cl)cc3Cl)c(C)nn2C)c(Cl)c1 [Example I-40] | 4.13^[a]; | 4.00^[c] | 4.06^[b];
39 | C=CCOc1ccc(Nc2c(-c3ccc(F)cc3Cl)c(C)nn2C)c(Cl)c1 [Example I-41] | 4.23^[a]; | – | 4.20^[b]
40 | C#CCOc1cc(F)cc(F)c1Nc1c(-c2ccc(F)cc2Br)c(C)nn1C [Example I-42] | 3.33^[a]; | – | 3.32^[b]
41 | C#CCOc1ccccc1Nc1c(-c2ccc(F)cc2Br)c(C)nn1C [Example I-43] | 3.60^[a] | – | –
42 | C=CCOc1ccc(F)cc1Nc1c(-c2ccc(F)cc2Br)c(C)nn1C [Example I-44] | 4.08^[a] | – | –
43 | C#CCOc1ccc(F)cc1Nc1c(-c2ccc(F)cc2Br)c(C)nn1C [Example I-45] | 3.64^[a] | – | –
44 | C=CCOc1cc(C)ccc1Nc1c(-c2ccc(F)cc2Br)c(C)nn1C [Example I-46] | 4.39^[a] | – | –
45 | C#CCOc1cc(C)ccc1Nc1c(-c2ccc(F)cc2Br)c(C)nn1C [Example I-47] | 3.87^[a] | – | –
46 | C=CCOc1ccccc1Nc1c(-c2ccc(F)cc2Cl)c(C)nn1C [Example I-48] | 3.99^[a] | – | –
47 | C#CCOc1ccccc1Nc1c(-c2ccc(F)cc2Cl)c(C)nn1C [Example I-49] | 3.53^[a] | – | –
48 | C=CCOc1ccc(F)cc1Nc1c(-c2ccc(F)cc2Cl)c(C)nn1C [Example I-50] | 4.01^[a] | – | –
49 | C#CCOc1ccc(F)cc1Nc1c(-c2ccc(F)cc2Cl)c(C)nn1C [Example I-51] | 3.58^[a] | – | –
50 | C=CCOc1cc(C)ccc1Nc1c(-c2ccc(F)cc2Cl)c(C)nn1C [Example I-52] | 4.32^[a] | – | –
51 | C#CCOc1cc(C)ccc1Nc1c(-c2ccc(F)cc2Cl)c(C)nn1C [Example I-53] | 3.83^[a] | – | –
52 | C=CCOc1ccccc1Nc1c(-c2ccc(Cl)cc2Cl)c(C)nn1C [Example I-54] | 4.49^[a] | – | –
53 | C#CCOc1ccccc1Nc1c(-c2ccc(Cl)cc2Cl)c(C)nn1C [Example I-55] | 3.96^[a] | – | –
54 | C=CCOc1ccc(F)cc1Nc1c(-c2ccc(Cl)cc2Cl)c(C)nn1C [Example I-56] | 4.49^[a] | – | –
55 | C=CCOc1cc(C)ccc1Nc1c(-c2ccc(Cl)cc2Cl)c(C)nn1C [Example I-57] | 4.85^[a] | – | –

same assay, conditions: LC-UV, acidic range, 0.1% formic acid in water and acetonitrile as eluent; read-out: LogP [a]

Row | Structure (SMILES) | chromatographic logP
56 | CC(=O)Cc1ccc(O)cc1F [1-(2-fluoro-4-hydroxyphenyl)acetone] | 1.13

same assay, conditions: reversed phase HPLC columns, LC-UV, acidic range, 0.1% formic acid in water and acetonitrile as eluent; read-out: LogP [a]

Row | Structure (SMILES) | chromatographic logP
57 | C#CCOc1cc(F)cc(F)c1Nc1c(-c2ccc(OCC=C)cc2F)c(C)nn1C [Example I-22, 4-[4-(Allyloxy)-2-fluorophenyl]-N-[2,4-difluoro-6-(prop-2-yn-1-yloxy)phenyl]-1,3-dimethyl-1H-pyrazol-5-amine] | 3.3

From US10246420B2, “Pyrazole derivatives” (BAYER CROPSCIENCE AKTIENGESELLSCHAFT, priority 2014, dated 2019)
